Experimental data as given in paper PMC12123458, “Unraveling Small Molecule-Mediated Sirtuin 3 Activation at a Distinct Binding Site for Cardioprotective Therapies” (ACS Central Science, 2025).

What was measured:
SIRT3 = target: T1, SIRT3 (Rattus norvegicus, UniProt A0A8I5XWT5); test: CETSA of SIRT3 in H9c2 cells; type: cell-based; settings: 10 μM, 6 h
T1 construct: endogenous in cells; host or cells: H9c2
T1 sequence (A0A8I5XWT5 1-347): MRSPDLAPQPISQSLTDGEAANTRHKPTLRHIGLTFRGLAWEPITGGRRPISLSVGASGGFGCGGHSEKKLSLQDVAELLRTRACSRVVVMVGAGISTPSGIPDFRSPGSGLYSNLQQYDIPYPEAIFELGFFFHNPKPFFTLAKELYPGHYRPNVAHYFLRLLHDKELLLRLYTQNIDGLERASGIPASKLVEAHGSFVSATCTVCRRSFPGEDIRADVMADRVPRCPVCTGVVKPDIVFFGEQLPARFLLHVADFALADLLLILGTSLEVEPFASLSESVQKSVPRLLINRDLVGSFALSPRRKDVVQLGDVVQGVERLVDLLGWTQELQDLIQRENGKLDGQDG
Method: The Cellular Thermal Shift Assay (CETSA) leverages the principle of thermal stabilization of proteins upon ligand binding. H9c2 cells were seeded on 100 mm culture dishes and allowed to adhere for 12 h. Following attachment, cells were treated with SKLB-11A (10 μM) for 6 h, after which they were enzymatically detached using trypsin and harvested. The cell suspension was partitioned into seven equal aliquots, which were then exposed to a range of thermal conditions (37, 41, 45, 49, 53, 57, and 61 °C) for 3 min each. Post-thermal treatment, rapid freezing in liquid nitrogen was performed thrice to ensure cell lysis. The lysates were then subjected to centrifugation at 12,000 rpm for 20 min, and the levels of SIRT3 were analyzed via Western blotting.

SIRT5 = target: T2, SIRT5 (Homo sapiens, UniProt Q9NXA8); test: SPR binding to SIRT5
T2 sequence (Q9NXA8 37-310): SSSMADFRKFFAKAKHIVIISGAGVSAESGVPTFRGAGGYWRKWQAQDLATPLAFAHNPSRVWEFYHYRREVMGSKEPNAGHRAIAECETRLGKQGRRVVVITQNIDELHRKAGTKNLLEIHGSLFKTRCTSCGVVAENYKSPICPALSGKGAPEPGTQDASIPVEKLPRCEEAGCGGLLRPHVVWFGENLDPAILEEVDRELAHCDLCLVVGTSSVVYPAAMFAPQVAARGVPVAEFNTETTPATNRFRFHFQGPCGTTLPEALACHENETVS
Method: (§1) The affinity of SKLB-11A for SIRT1, SIRT2, SIRT3, SIRT5, and SIRT6 was determined using a Reichert 4SPR system (Reichert Technologies, Depew, NY, USA). Proteins at 200 μg/mL were immobilized on a dextran-coated sensor chip (13206066) until reaching ≥12,000 response units (RUs). A dual-flow channel setup was used, reserving one channel for blank controls. SKLB-11A was introduced at varying concentrations for binding and subsequent dissociation kinetic analysis. Data acquisition was at 25 °C utilizing a PBST running buffer (pH 7.4). The equilibrium dissociation constant (K d) was computed from steady-state affinity measurements using TraceDrawer software.

[1] = tested on: Dox-induced cardiotoxicity model; test: Mouse model of doxorubicin-induced cardiomyopathy; type: in vivo
Method: For the establishment of the experimental model, male C57BL/6J mice aged 8 weeks, with an average weight of 23 g, were utilized. The mice were administered varying dosages of SKLB-11A (10 and 20 mg/kg/day) or a corresponding volume of sterile saline via oral gavage over a period of 7 days. […] The sample size for each group consisted of eight specimens. Echocardiographic assessments were conducted at three distinct time points: baseline (day 0), post-treatment (day 7), and at the conclusion of the study (day 21). The experimental timeline was terminated on day 21.
Noninvasive transthoracic echocardiography was performed using a Vevo 3100 System with a 30-MHz transducer to assess cardiac function in mice. The procedure was conducted by an experienced technician who was blinded to the study groups. Mice were anesthetized with 1.5–2% isoflurane and underwent skin preparation. Two-dimensional guided M-mode echocardiography in the short axis view was used to measure left ventricular fractional shortening (FS) and left ventricular ejection fraction (EF).
H&E staining was used to evaluate pathological changes in key organs. Fixed tissues were dehydrated, embedded in paraffin, and sectioned into 4 μm slices. The sections were stained with hematoxylin for 10–15 min, washed with tap water for 2 min, differentiated for 30 s using hydrochloric acid and ethanol, and then washed with warm water for 5 min. After staining with eosin for 2 min, the sections were dehydrated and mounted with resin. All procedures followed the standard operating procedure (SOP) for pathological examination.

SIRT2 [2] = target: T3, SIRT2 (Homo sapiens, UniProt Q8IXJ6); test: SPR binding to SIRT2
T3 sequence (Q8IXJ6 1-389): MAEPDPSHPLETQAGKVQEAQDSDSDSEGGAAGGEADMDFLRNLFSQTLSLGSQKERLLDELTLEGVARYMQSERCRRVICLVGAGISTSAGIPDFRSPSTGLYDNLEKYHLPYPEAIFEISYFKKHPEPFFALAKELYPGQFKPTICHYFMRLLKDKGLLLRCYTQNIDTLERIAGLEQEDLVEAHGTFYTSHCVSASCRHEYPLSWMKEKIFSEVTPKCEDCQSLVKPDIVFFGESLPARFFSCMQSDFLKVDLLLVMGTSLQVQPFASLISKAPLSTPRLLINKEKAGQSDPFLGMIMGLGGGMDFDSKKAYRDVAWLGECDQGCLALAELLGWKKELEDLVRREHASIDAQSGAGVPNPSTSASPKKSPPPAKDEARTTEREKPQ
Method: as §1

SIRT2 [3] = target: T3, SIRT2; test: Coupled enzymatic assay, acetylated α-tubulin-K25 substrate; type: biochemical; settings: 100 μM
Description: Additionally, we used surface plasmon resonance (SPR) to measure the binding of SKLB-11A to immobilized SIRT3. […] We next evaluated the selectivity of SKLB-11A for different SIRT family members. […] We next examined the functional specificity of SKLB-11A using coupled enzymatic assays with isoform-specific, physiologically relevant substrates: acetylated p53-K381 for SIRT1, acetylated α-tubulin-K25 for SIRT2, acetylated MnSOD-K122 for SIRT3, and succinylated CPS1-K537 for SIRT5 (Supplementary Table S3). […] Using Schrödinger molecular docking simulations, we assessed the binding interactions of SKLB-11A with SIRT isoforms.

COC(=O)c1c(N)n(Cc2ccc(F)cc2)c2nc3ccccc3nc12 [SKLB-11A, Methyl 2-amino-1-(4-fluorobenzyl)-1H-pyrrolo[2,3-b]quinoxaline-3-carboxylate]
thermal stability of SIRT3 (CETSA) (SIRT3): effectively binds to SIRT3 | binding to SIRT5 (SIRT5): no binding | left ventricular ejection fraction (EF) and fractional shortening (FS) ([1]; 10 or 20 mg/kg, ig, pretreatment, Dox mice, dose-dependent): significantly restored | body weight (Dox-induced weight loss) ([1]; Dox mice): partially reversed Dox-induced weight loss | mitochondrial respiration (basal and maximal) in heart tissues ([1]; Dox mice): restored mitochondrial respiration | serum markers of myocardial injury LDH, CK-MB, BNP ([1]; Dox mice): reduced serum markers of myocardial injury | myocardial structure, histology ([1]; Dox mice, H&E): preserved myocardial structure | toxicity at effective doses, organ histology (heart, liver, spleen, lungs, kidneys) ([1]; mice, H&E): no apparent toxicity | Kd (SIRT2 [2]; SPR): > 200 µM | affinity for SIRT2 lower than its affinity for SIRT3 (SIRT2 [2]; SPR Kd ratio): approximately 40 times | effect on basal SIRT2 deacetylation activity (SIRT2 [3]): no statistically significant effects
